In patent publication US20100298141A1, “SUBSTITUTED PYRIDINE N-OXIDE HERBICIDES” (E. I. DU PONT DE NEMOURS AND COMPANY, priority 2007, published 2010):

Key:
duck salad = experiment: Test C flooded paddy test; type: in vivo, Heteranthera limosa; conditions: Flood
How it was run: (§1)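 Under a constant 3 cm flood, test compounds went directly into the paddy water. Following 13 to 15 days of greenhouse growth, treated species and controls were compared by eye.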

common ragweed = experiment: Test C pre-/postemergence test; type: in vivo, Ambrosia elation
How it was run: (§2)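 Seeds were planted and treated preemergence with test chemical in a non-phytotoxic solvent mixture containing surfactant. Postemergence applications of the same formulation went onto plants 2 to 18 cm tall (1- to 4-leaf stage). A dash marks no test result.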

blackgrass = experiment: Test C pre-/postemergence test; type: in vivo, Alopecurus myosuroides
How it was run: as §2

crabgrass = experiment: Test A pre-/postemergence greenhouse test; type: in vivo, Digitaria sanguinalis; conditions: for Plant response rating, Crabgrass, Large: 0 to 100 scale where 0 is no effect and 100 is complete control; for Crabgrass, Large plant response rating: 0 to 100 scale
How it was run: (§3)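 Pots of loam–sand soil sown with the test species are sprayed preemergence on the soil surface; emerged seedlings (1–2 leaves, 2–10 cm) are sprayed postemergence at the same time. The vehicle is a non-phytotoxic solvent mixture with surfactant. Injury is scored visually after ~10 d in greenhouse.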

Surinam grass = experiment: Test C pre-/postemergence test; type: in vivo, Brachiaria decumbens; conditions: for Plant response rating, Surinam Grass: 31 g ai/ha, scale 0 to 100 (0 no effect, 100 complete control)
How it was run: as §2

velvetleaf [1] = experiment: Test A pre-/postemergence greenhouse test; type: in vivo, Abutilon theophrasti; conditions: for Plant response rating, Velvetleaf: 0 to 100 scale where 0 is no effect and 100 is complete control; for Velvetleaf plant response rating: 0 to 100 scale
How it was run: as §3

green foxtail = experiment: Test C pre-/postemergence test; type: in vivo, Setaria viridis; conditions: for Plant response rating, Foxtail, Green: 31 g ai/ha, scale 0 to 100 (0 no effect, 100 complete control)
How it was run: as §2

downy brome = experiment: Test C pre-/postemergence test; type: in vivo, Bromus tectorum; conditions: for Plant response rating, Bromegrass, Downy: 31 g ai/ha, scale 0 to 100 (0 no effect, 100 complete control)
How it was run: as §2

velvetleaf [2] = experiment: Test C pre-/postemergence test; type: in vivo, Abutilon theophrasti; conditions: for Plant response rating, Velvetleaf: 31 g ai/ha, scale 0 to 100 (0 no effect, 100 complete control)
How it was run: as §2

lambsquarters = experiment: Test C pre-/postemergence test; type: in vivo, Chenopodium album
How it was run: as §2

pigweed = experiment: Test C pre-/postemergence test; type: in vivo, Amaranthus retroflexus; conditions: for Plant response rating, Pigweed: 31 g ai/ha, scale 0 to 100 (0 no effect, 100 complete control)
How it was run: as §2

giant foxtail = experiment: Test A pre-/postemergence greenhouse test; type: in vivo, Setaria faberi; conditions: for Plant response rating, Foxtail, Giant: 0 to 100 scale where 0 is no effect and 100 is complete control; for Foxtail, Giant plant response rating: 0 to 100 scale
How it was run: as §3

barnyardgrass [3] = experiment: Test C flooded paddy test; type: in vivo, Echinochloa crus-galli; conditions: Flood
How it was run: as §1

soybean = experiment: Test C pre-/postemergence test; type: in vivo, Glycine max; conditions: for Plant response rating, Soybean: 31 g ai/ha, scale 0 to 100 (0 no effect, 100 complete control)
How it was run: as §2

woolly cupgrass = experiment: Test C pre-/postemergence test; type: in vivo, Eriochloa villosa; conditions: for Plant response rating, Cupgrass, Woolly: 31 g ai/ha, scale 0 to 100 (0 no effect, 100 complete control)
How it was run: as §2

barnyardgrass [4] = experiment: Test A pre-/postemergence greenhouse test; type: in vivo, Echinochloa crus-galli; conditions: for Plant response rating, Barnyardgrass: 0 to 100 scale where 0 is no effect and 100 is complete control; for Barnyardgrass plant response rating: 0 to 100 scale
How it was run: as §3

[5] = 62 g ai/ha, scale 0 to 100 (0 no effect, 100 complete control)
[6] = 250 g ai/ha, scale 0 to 100, 0 no effect, 100 complete control, 13 to 15 days
[7] = 62 g ai/ha, Preemergence, scale 0 to 100
[8] = 125 g ai/ha, preemergence, scale 0 (no effect) to 100 (complete control)
[9] = preemergence, 250 g ai/ha, scale 0 (no effect) to 100 (complete control)
[10] = Postemergence, 500 g ai/ha, 0 is no effect, 100 is complete control
[11] = Preemergence, 125 g ai/ha, 0 no effect, 100 complete control
[12] = Preemergence, 31 g ai/ha, scale 0 to 100 (0 no effect, 100 complete control)

Cn1nc(OC(F)F)c(CS(=O)(=O)c2cccc[n+]2[O-])c1C(F)(F)F [Compound 80]
85: Plant response rating, Ducksalad (duck salad; [6]) | Ragweed plant response rating (common ragweed; [8]) | Foxtail, Green plant response rating (green foxtail; [7]) | Plant response rating, Foxtail, Green (green foxtail; Preemergence)
20: Soybean plant response rating (soybean; [8]) | Soybean plant response rating (soybean; [9])
70: Plant response rating, Surinam Grass (Surinam grass; Preemergence) | Plant response rating, Velvetleaf (velvetleaf [1]; Preemergence, 500 g ai/ha) | Plant response rating, Foxtail, Giant (giant foxtail; Postemergence, 125 g ai/ha)
100: Ragweed plant response rating (common ragweed; [9]) | Surinam Grass plant response rating (Surinam grass; [9]) | Foxtail, Green plant response rating (green foxtail; [8]) | Foxtail, Green plant response rating (green foxtail; [9]) | Lambsquarters plant response rating (lambsquarters; [9]) | Plant response rating, Foxtail, Giant (giant foxtail; Preemergence, 500 g ai/ha) | Cupgrass, Woolly plant response rating (woolly cupgrass; [7]) | Cupgrass, Woolly plant response rating (woolly cupgrass; [8]) | Plant response rating, Cupgrass, Woolly (woolly cupgrass; Preemergence) | Cupgrass, Woolly plant response rating (woolly cupgrass; [9]) | Plant response rating, Barnyardgrass (barnyardgrass [4]; Preemergence, 500 g ai/ha)
80: Crabgrass, Large plant response rating (crabgrass; [10]) | Crabgrass, Large plant response rating (crabgrass; [11]) | Surinam Grass plant response rating (Surinam grass; [7]) | Surinam Grass plant response rating (Surinam grass; [8]) | Foxtail, Giant plant response rating (giant foxtail; [10]) | Plant response rating, Barnyardgrass (barnyardgrass [4]; Postemergence, 125 g ai/ha)
95: Bromegrass, Downy plant response rating (downy brome; [9])
90: Blackgrass plant response rating (blackgrass; [9]) | Plant response rating, Crabgrass, Large (crabgrass; Preemergence, 500 g ai/ha) | Foxtail, Giant plant response rating (giant foxtail; [11]) | Barnyardgrass plant response rating (barnyardgrass [4]; [10]) | Barnyardgrass plant response rating (barnyardgrass [4]; [11])
40: Plant response rating, Crabgrass, Large (crabgrass; Postemergence, 125 g ai/ha) | Bromegrass, Downy plant response rating (downy brome; [7]) | Plant response rating, Bromegrass, Downy (downy brome; Preemergence)
0: Plant response rating, Ducksalad (duck salad; [5]) | Ragweed plant response rating (common ragweed; [7]) | Plant response rating, Velvetleaf (velvetleaf [1]; Postemergence, 125 g ai/ha) | Velvetleaf plant response rating (velvetleaf [1]; [11]) | Velvetleaf plant response rating (velvetleaf [2]; [7]) | Plant response rating, Velvetleaf (velvetleaf [2]; Preemergence) | Pigweed plant response rating (pigweed; [7]) | Pigweed plant response rating (pigweed; [8]) | Plant response rating, Pigweed (pigweed; Preemergence) | Pigweed plant response rating (pigweed; [9]) | Plant response rating, Barnyardgrass (barnyardgrass [3]; [5]) | Soybean plant response rating (soybean; [7]) | Plant response rating, Soybean (soybean; Preemergence)
65: Velvetleaf plant response rating (velvetleaf [2]; [9])
60: Velvetleaf plant response rating (velvetleaf [1]; [10]) | Bromegrass, Downy plant response rating (downy brome; [8]) | Velvetleaf plant response rating (velvetleaf [2]; [8]) | Lambsquarters plant response rating (lambsquarters; [8]) | Plant response rating, Barnyardgrass (barnyardgrass [3]; [6])

Cn1nc(C(F)(F)F)c(CS(=O)(=O)c2cccc[n+]2[O-])c1OCC(F)F [Compound 81]
75: Plant response rating, Ducksalad (duck salad; [6]) | Foxtail, Green plant response rating (green foxtail; [7])
98: Pigweed plant response rating (pigweed; [7])
0: Plant response rating, Ragweed (common ragweed; [12]) | Plant response rating, Velvetleaf (velvetleaf [2]; Preemergence) | Plant response rating, Pigweed (pigweed; Preemergence) | Plant response rating, Barnyardgrass (barnyardgrass [3]; [5]) | Plant response rating, Barnyardgrass (barnyardgrass [3]; [6]) | Soybean plant response rating (soybean; [7]) | Plant response rating, Soybean (soybean; Preemergence)
45: Velvetleaf plant response rating (velvetleaf [2]; [7])
65: Plant response rating, Ducksalad (duck salad; [5]) | Plant response rating, Foxtail, Green (green foxtail; Preemergence)
90: Foxtail, Giant plant response rating (giant foxtail; [11]) | Barnyardgrass plant response rating (barnyardgrass [4]; [11])
85: Velvetleaf plant response rating (velvetleaf [2]; [9]) | Plant response rating, Cupgrass, Woolly (woolly cupgrass; Preemergence)
50: Plant response rating, Blackgrass (blackgrass; [12]) | Plant response rating, Crabgrass, Large (crabgrass; Postemergence, 125 g ai/ha)
70: Crabgrass, Large plant response rating (crabgrass; [10]) | Plant response rating, Surinam Grass (Surinam grass; Preemergence) | Velvetleaf plant response rating (velvetleaf [1]; [10]) | Velvetleaf plant response rating (velvetleaf [2]; [8])
60: Plant response rating, Barnyardgrass (barnyardgrass [4]; Postemergence, 125 g ai/ha)
10: Plant response rating, Velvetleaf (velvetleaf [1]; Postemergence, 125 g ai/ha) | Velvetleaf plant response rating (velvetleaf [1]; [11])
100: Ragweed plant response rating (common ragweed; [8]) | Ragweed plant response rating (common ragweed; [9]) | Plant response rating, Crabgrass, Large (crabgrass; Preemergence, 500 g ai/ha) | Surinam Grass plant response rating (Surinam grass; [8]) | Surinam Grass plant response rating (Surinam grass; [9]) | Plant response rating, Velvetleaf (velvetleaf [1]; Preemergence, 500 g ai/ha) | Foxtail, Green plant response rating (green foxtail; [8]) | Foxtail, Green plant response rating (green foxtail; [9]) | Bromegrass, Downy plant response rating (downy brome; [8]) | Bromegrass, Downy plant response rating (downy brome; [9]) | Lambsquarters plant response rating (lambsquarters; [7]) | Lambsquarters plant response rating (lambsquarters; [8]) | Lambsquarters plant response rating (lambsquarters; [9]) | Pigweed plant response rating (pigweed; [8]) | Pigweed plant response rating (pigweed; [9]) | Plant response rating, Foxtail, Giant (giant foxtail; Preemergence, 500 g ai/ha) | Soybean plant response rating (soybean; [8]) | Soybean plant response rating (soybean; [9]) | Cupgrass, Woolly plant response rating (woolly cupgrass; [7]) | Cupgrass, Woolly plant response rating (woolly cupgrass; [8]) | Cupgrass, Woolly plant response rating (woolly cupgrass; [9]) | Plant response rating, Barnyardgrass (barnyardgrass [4]; Preemergence, 500 g ai/ha)
80: Ragweed plant response rating (common ragweed; [7]) | Crabgrass, Large plant response rating (crabgrass; [11]) | Surinam Grass plant response rating (Surinam grass; [7]) | Plant response rating, Lambsquarters (lambsquarters; [12]) | Plant response rating, Foxtail, Giant (giant foxtail; Postemergence, 125 g ai/ha) | Foxtail, Giant plant response rating (giant foxtail; [10]) | Barnyardgrass plant response rating (barnyardgrass [4]; [10])
40: Bromegrass, Downy plant response rating (downy brome; [7]) | Plant response rating, Bromegrass, Downy (downy brome; Preemergence)
